Structures can show the parent of a compound that is named as a salt.
Key:
[1] = Acute lethality after intraperitoneal dosage (LD50); format: in vivo
Experimental: In using the compounds of this invention to inhibit prolactin secretion or to treat Parkinson's syndrome or for other pharmacologic action, a compound according to Formula I above in which R^2 is C1 -C3 alkyl or allyl and R^1 is H or C1 -C3 alkyl, or a salt thereof with a pharmaceutically-acceptable acid, is administered to a subject suffering from Parkinsonism or in need of having this prolactin level reduced in an effective amount to treat Parkinsonism or to reduce prolactin. Oral administration is preferred. If parenteral administration is used, the injection is preferably by the subcutaneous route using an appropriate pharmaceutical formulation. […] In particular, with intravenous or intramuscular administration, a water soluble pharmaceutically-acceptable salt is employed. For oral administration, the compound either as the free base or in the form of a salt thereof can also be mixed with standard pharmaceutical excipients and loaded into empty telescoping gelatin capsules or pressed into tablets. The oral dosage range is from about […]. to 10 mg./kg. of mammalian weight and the parenteral dose range from about 0.0025 to 2.5 mg./kg.

[2] = tested on: 6-hydroxydopamine-lesioned rats; assay: Rat turning test in 6-hydroxydopamine-lesioned (nigro-neostriatal-lesioned) rats, dopamine agonist activity; format: in vivo; conditions: 1 mg/kg intraperitoneal; for % of Rats Exhibiting Turning Behavior: aqueous solution; for Average Number of Turns/rat: first 15 minutes after end of latency period
Experimental: In this test, nigro-neostriatal-lesioned rats are employed, as prepared by the procedure of Ungerstedt and Arbuthnott, Brain Res, 24, 485 (1970). A compound having dopamine agonist activity causes the rats to turn in circles contralateral to the side of the lesion. After a latency period, which varies from compound to compound, the number of turns is counted over a 15-minute period.
The compounds were dissolved in water and the aqueous solution injected into the rat by the intraperitoneal route at a dose level of 1 mg/kg.

prolactin = assay: Inhibition of prolactin secretion in reserpine-treated male rats; format: in vivo, rat (Sprague-Dawley); conditions: serum one hour after treatment, reserpine pretreated male rats
Experimental: The compounds of this invention are also useful as prolactin inhibitors and as such they can be employed in the treatment of inappropriate lactation such as postpartum lactation and galactorrhea.
Adult male rats of the Sprague-Dawley strain weighing about 200 g. were housed in an air-conditioned room with controlled lighting (lights on […].) and fed lab chow and water ad libitum. Each rat received an intraperitoneal injection of 2.0 mg. of reserpine in aqueous suspension 18 hours before administration of the test drug. The purpose of the reserpine was to keep prolactin levels uniformly elevated. The compounds under test were dissolved in 10 percent ethanol, and were injected intraperitoneally at doses of 0.5 and 5 mg/kg. Each compound was administered at each dose level to a group of 10 rats, and a control group of 10 intact males received an equivalent amount of 10 percent ethanol. One hour after treatment, all rats were killed by decapitation, and 150 μl aliquots of serum were assayed for prolactin.
The difference between the prolactin level of the treated rats and prolactin level of the control rats, divided by the prolactin level of the control rats gives the percent inhibition of prolactin secretion attributable to the compounds of this invention. In the table, column 1 gives the name of the compound; and columns 2 and 3, the percent prolactin inhibition at the 0.5 and 5 mg/kg dose levels.

Row | SMILES | LD50 ([1]; in vivo, ip, intraperitoneal, indicated from lethality at the doses tested) [mg/kg] | deaths ([1]; intraperitoneal dosages of 10-30 mg./kg.) | lethality ([1]; intraperitoneal dosages of 100-300 mg./kg.) | % of Rats Exhibiting Turning Behavior [2] [%] | Average Number of Turns/rat [2] [Turns/rat] | Percent Prolactin Inhibition at Given Dose (prolactin; 0.5 mg/kg intraperitoneal) [%] | Percent Prolactin Inhibition at Given Dose (prolactin; 5 mg/kg intraperitoneal) [%]
1 | CCCN1CCC[C@@H]2Cc3c[nH]cc3C[C@H]21 (relative stereo) | 30 to 100 | no deaths | fatal | – | – | – | –
2 | CN1CCC[C@@H]2Cc3c[nH]cc3C[C@H]21 (relative stereo) [trans-dl-5-Methyl-4,4a,5,6,7,8,8a,9-octahydro-2H-pyrrolo[3,4-g]quinoline maleate] | – | – | – | 33 | 20 | 23 | 90
3 | CCCN1CCC[C@@H]2Cc3c[nH]cc3C[C@H]21 (relative stereo) [trans-dl-5-n-Propyl-4,4a,5,6,7,8,8a,9-octahydro-2H-pyrrolo-[3,4-g]quinoline maleate] | – | – | – | 100 | 169 | – | 95
4 | CCCN1C[C@H](CO)C[C@@H]2Cc3c[nH]cc3C[C@H]21 (relative stereo) [trans-dl-5-n-propyl-7-hydroxymethyl-4,4a,5,6,7,8,8a,9-octahydropyrrolo[3,4-g]quinoline] | – | – | – | 100 | 109 | – | –
